Test results published in PMC3243944 (Biopolymers, 2011).
Where no end group is shown, it is not given here.

Assays:
[1] = system: 5-helix bundle (5HB) protein construct derived from the hRSV fusion (F) protein; settings: protein-based (5HB) FP screening assay; cited from earlier work
[2] = Solubility in aqueous buffer; format: physicochemical

Question: What does the source list for ISQVNEKINQSLAFIRKSDE [C20]?
Answer: Binding affinity to the 5HB [1]: low micromolar; solubility [2]: < 2000 µg/mL
